These are literature values, as cited in US20110184024A1, “Pharmaceutical Composition Containing Esomeprazole” (CTC BIO, INC., priority 2007, published 2011).

For the data set the following is noted: stored for two months at 25° C./60% RH.

Molecules are shown by their SMILES.

Consider `COc1ccc2nc([S@@+]([O-])Cc3ncc(C)c(OC)c3C)[nH]c2c1` [esomeprazole free base, (S)-5-methoxy-2-[(4-methoxy-3,5-dimethylpyridin-2-yl)methylsulfinyl]-3H-benzoimidazole], for which the “total impurities after storage” value is recorded as “about 1%”.
